Assay [1] has as its target T1, human H3 receptor (Homo sapiens, UniProt Q9Y5N1).
T1 construct: expressed in transfected cells
Nature of the assay: H3 receptor binding (N-[3H]-α-methylhistamine displacement, SK-N-MC cell membranes). As to conditions: 0.8 nM N-[3H]-α-methylhistamine, 60 min at 25° C. A digest of the protocol: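 Membranes from SK-N-MC cells stably expressing cloned human H3 receptor, in 50 mM Tris/5 mM EDTA pH 7.4, incubated with 0.8 nM N-[³H]-α-methylhistamine ± compound for 60 min at 25° C., then filtered. Nonspecific binding defined with 10 μM histamine.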

Assay [2] addresses T2, Rat SERT (Rattus norvegicus, UniProt P31652).
T2 construct: A rat brain without cerebellum (Zivic Laboratories, Inc.—Pittsburgh, Pa.) was homogenized; tissue Zivic Laboratories, Inc; host or cells: rat brain without cerebellum
The experiment in a line: Rat brain SERT binding ([3H]-Citalopram displacement, rat brain membranes). The conditions noted are these: 0.6 nM [3H]-Citalopram, 60 min at 25° C. A digest of the protocol:
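Membranes prepared from rat brain minus cerebellum in Tris pH 8/NaCl/KCl were incubated with 0.6 nM [3H]-citalopram and test compound for 60 min at 25° C. Bound ligand was separated by filtration. Nonspecific binding defined with 100 μM fluoxetine.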

Assay [3] deals with T3, human SERT (Homo sapiens, UniProt P31645).
T3 construct: expressed in transfected cells; host or cells: HEK293
The experiment in a line: Human SERT binding (3H-citalopram displacement, HEK293 membranes). As to conditions: 3H-citalopram 3.1 nM, rt for 1 h. A digest of the protocol:
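HEK293 membranes expressing human SERT incubated with ^3H-citalopram (3.1 nM) for 1 h at rt in 50 mM Tris, 120 mM NaCl, 5 mM KCl, pH 7.4. Nonspecific binding defined with 10 μM fluoxetine. Ki derived from bound radioactivity using the ^3H-citalopram Kd.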

Assay [4] addresses T1, human H3 receptor. The experiment in a line: Cyclic AMP accumulation (β-galactosidase reporter in SK-N-MC cells). It counts as cell-based. The conditions noted are these: read-out: pA2 (converted). How it is done: Sublines of SK-N-MC cells were created that expressed a reporter construct and the human H3 receptor. The reporter gene (β-galactosidase) is under the control of multiple cyclic AMP responsive elements. In 96-well plates, histamine was added directly to the cell media followed 5 min later by an addition of forskolin (5 μM final concentration). When appropriate, antagonists were added 10 min prior to agonist addition. After a 6-h incubation at 37° C., the media was aspirated and the cells washed with 200 μL of phosphate-buffered saline followed by a second aspiration. Cells were lysed with 25 μL 0.1× assay buffer (10 mM Na-phosphate, pH 8, 0.2 mM MgSO4, 0.01 mM MnCl2) and incubated at rt for 10 min. Cells were then incubated for 10 min with 100 μL of 1× assay buffer containing 0.5% Triton and 40 mM β-mercaptoethanol. Color was developed using 25 μL of 1 mg/mL substrate solution (chlorophenolred β-D galactopyranoside; Roche Molecular Biochemicals, Indianapolis, Ind.). Color was quantitated on a microplate reader at absorbance 570 nm. The pA2 values were calculated by Schild regression analysis of the pEC50 values.

[5] abbreviates: Schild regression analysis of the pEC50 values, histamine agonist, forskolin 5 μM, SK-N-MC reporter cells.

Like-named read-outs stand apart in the source and are kept apart here.

From patent US20080139564A1, “SUBSTITUTED PHENYL PROPYL AMINES AS HISTAMINE H3 RECEPTOR AND SEROTONIN TRANSPORTER MODULATORS” (priority 2006, published 2008) come the findings set out here.

T3 sequence (P31645 whole entry): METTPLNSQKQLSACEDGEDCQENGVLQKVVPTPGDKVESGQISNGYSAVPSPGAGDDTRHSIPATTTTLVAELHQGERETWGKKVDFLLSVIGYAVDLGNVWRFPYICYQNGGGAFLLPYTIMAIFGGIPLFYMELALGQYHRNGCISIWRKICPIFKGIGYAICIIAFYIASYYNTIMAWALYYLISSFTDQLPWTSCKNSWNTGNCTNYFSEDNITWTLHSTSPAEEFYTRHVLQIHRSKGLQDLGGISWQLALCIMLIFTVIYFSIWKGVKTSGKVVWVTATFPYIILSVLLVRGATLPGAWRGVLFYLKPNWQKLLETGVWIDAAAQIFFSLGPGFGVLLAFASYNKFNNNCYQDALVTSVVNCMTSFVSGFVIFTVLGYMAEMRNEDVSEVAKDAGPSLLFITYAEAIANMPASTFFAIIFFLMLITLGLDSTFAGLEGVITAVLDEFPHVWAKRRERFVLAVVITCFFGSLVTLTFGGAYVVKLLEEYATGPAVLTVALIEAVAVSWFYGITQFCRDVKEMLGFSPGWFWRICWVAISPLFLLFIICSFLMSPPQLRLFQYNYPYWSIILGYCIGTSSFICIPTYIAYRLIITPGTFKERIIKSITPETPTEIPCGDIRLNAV
T1 sequence (Q9Y5N1 whole entry): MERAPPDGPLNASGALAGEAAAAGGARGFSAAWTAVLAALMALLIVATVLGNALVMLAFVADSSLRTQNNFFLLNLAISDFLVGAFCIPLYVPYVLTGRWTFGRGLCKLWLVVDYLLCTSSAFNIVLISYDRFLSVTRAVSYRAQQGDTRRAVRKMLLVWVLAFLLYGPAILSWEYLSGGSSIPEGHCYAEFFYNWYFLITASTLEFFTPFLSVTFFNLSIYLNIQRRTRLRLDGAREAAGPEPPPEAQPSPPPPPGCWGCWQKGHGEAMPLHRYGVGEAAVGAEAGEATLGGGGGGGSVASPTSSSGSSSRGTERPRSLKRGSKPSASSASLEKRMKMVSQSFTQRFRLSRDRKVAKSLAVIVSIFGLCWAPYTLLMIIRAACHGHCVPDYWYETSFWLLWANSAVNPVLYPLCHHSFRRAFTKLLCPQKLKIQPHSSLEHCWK
T2 sequence (P31652 whole entry): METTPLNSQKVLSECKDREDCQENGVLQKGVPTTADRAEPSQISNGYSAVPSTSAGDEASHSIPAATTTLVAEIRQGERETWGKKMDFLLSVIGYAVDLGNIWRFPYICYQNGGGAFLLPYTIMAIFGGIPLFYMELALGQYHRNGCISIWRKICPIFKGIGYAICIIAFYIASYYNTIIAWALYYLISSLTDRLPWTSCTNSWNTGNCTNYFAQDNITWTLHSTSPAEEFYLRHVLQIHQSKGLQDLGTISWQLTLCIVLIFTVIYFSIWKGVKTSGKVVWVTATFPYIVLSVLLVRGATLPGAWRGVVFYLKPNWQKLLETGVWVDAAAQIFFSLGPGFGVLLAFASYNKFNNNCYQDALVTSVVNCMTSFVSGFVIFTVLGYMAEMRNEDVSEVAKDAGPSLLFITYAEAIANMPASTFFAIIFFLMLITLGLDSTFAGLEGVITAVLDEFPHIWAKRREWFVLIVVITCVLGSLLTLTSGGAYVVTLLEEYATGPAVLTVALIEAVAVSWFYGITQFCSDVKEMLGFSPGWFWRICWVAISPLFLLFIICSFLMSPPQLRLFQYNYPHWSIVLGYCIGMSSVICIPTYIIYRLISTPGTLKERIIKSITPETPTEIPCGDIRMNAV

For orientation: Ki means a dissociation constant, usually derived from enzyme kinetics or from competition with a known ligand. Higher therefore signals weaker binding. Regarding `CC(C)N1CCC(Oc2ccc(C(CCN(C)C)Oc3ccccc3)cc2)CC1` (stereo not drawn) [Example 36, {3-[4-(1-Isopropyl-piperidin-4-yloxy)-phenyl]-3-phenoxy-propyl}-dimethyl-amine], the Ki in assay [1] amounted to 0.8 nM; in assay [2], 36 nM; in assay [3], 169 nM. Moreover, the Kb in assay [4] is 6.92 nM.

Turning to `CN(C)CCC(Sc1ccccc1)c1ccc(OCCCN2CCCCC2)cc1` (stereo not drawn) [Example 67, Dimethyl-{3-phenylsulfanyl-3-[4-(3-piperidin-1-yl-propoxy)phenyl]-propyl}-amine], the Ki in assay [1] was determined as 0.6 nM; in assay [2] it was 4 nM; in assay [3], 53 nM. In addition, the Kb in assay [4] is 0.631 nM.

On to `CN(C)CCC(Oc1ccc(C(F)(F)F)cc1)c1ccc(OCCCN2CCCCC2)cc1` (stereo not drawn) [Example 2, Dimethyl-[3-[4-(3-piperidin-1-yl-propoxy)-phenyl]-3-(4-trifluoromethyl-phenoxy)-propyl]-amine], for which the Ki in assay [1] is 2.5 nM; in assay [2], 17 nM; in assay [3] it was 14 nM. Further, the Kb in assay [4] (setting [5]) was 2.95 nM.

`CC(C)N1CCN(Cc2ccc(C(CCN(C)C)Oc3ccccc3)cc2)CC1` (stereo not drawn) [Example 56, {3-[4-(4-Isopropyl-piperazin-1-ylmethyl)-phenyl]-3-phenoxy-propyl}-dimethyl-amine]: the Ki turned out to be 1 nM in assay [1], 14 nM in assay [2] and 133 nM in assay [3]. In assay [4], the Kb was 0.977 nM.

Regarding `CN(C)CCC(Oc1ccc(C(F)(F)F)cc1)c1ccc(C#CCCN2CCCCC2)cc1` (stereo not drawn) [Example 20, Dimethyl-[3-[4-(4-piperidin-1-yl-but-1-ynyl)-phenyl]-3-(4-trifluoromethyl-phenoxy)-propyl]-amine], the values for the Ki in assay [1], in assay [2] and in assay [3] were 9 nM, 58 nM and 61 nM, respectively. For the same compound, the Kb in assay [4] (setting [5]) is 5.62 nM.

`CNCCC(Oc1ccc(Cl)c(Cl)c1)c1ccc(OCCCN2CCCCC2)cc1` (stereo not drawn) [Example 71, {3-(3,4-Dichloro-phenoxy)-3-[4-(3-piperidin-1-yl-propoxy)-phenyl]-propyl}-methyl-amine]: the results for the Ki in assay [1], in assay [2] and in assay [3] were 2 nM, 3 nM and 0.8 nM, respectively. The Kb in assay [4] was 10.5 nM.

For the compound `CN(C)CCC(Oc1ccc(OCCCN2CCCCC2)cc1)c1ccccc1` (stereo not drawn) [Example 41, Dimethyl-{3-phenyl-3-[4-(3-piperidin-1-yl-propoxy)-phenoxy]-propyl}-amine], the Ki in assay [1] was 1 nM; in assay [2], 18 nM; in assay [3], 282 nM. Further, the Kb in assay [4] is 0.759 nM.

For `CN(C)CCC(Oc1ccc(OCCCN2CCCCC2)cc1)c1ccc(C(F)(F)F)cc1` (stereo not drawn) [Example 42, Dimethyl-[3-[4-(3-piperidin-1-yl-propoxy)-phenoxy]-3-(4-trifluoromethyl-phenyl)-propyl]-amine], the Ki in assay [1] stood at 2 nM; in assay [2] it was 9 nM; in assay [3], 180 nM. Further, the Kb in assay [4] is 3.89 nM.

For `CN(C)CCC(Oc1ccccc1)c1ccc(CCCCN2CCCCC2)cc1` (stereo not drawn) [Example 32, Dimethyl-{3-phenoxy-3-[4-(4-piperidin-1-yl-butyl)-phenyl]-propyl}-amine], the figures for the Ki in assay [1], in assay [2] and in assay [3] were 6 nM, 7 nM and 10 nM, respectively. Besides, the Kb in assay [4] was 4.79 nM.
